Measurements taken from patent US20240226107A1, “UBIQUITIN-SPECIFIC PROTEASE 1 (USP1) INHIBITOR” (SIMCERE ZAIMING PHARMACEUTICAL CO., LTD., priority 2021, published 2024).
Converted amounts (≈) assume the structure as drawn.

Columns and labels:
[1] = target: USP1 (Recombinant Human His6-USP1/His6-UAF1 Complex Protein) (Homo sapiens (Human), UniProt O94782); assay: In vitro activity assay for USP1 (Ub-CHOP2-Reporter deubiquitination assay); format: biochemical; details: 0.5 h incubation at room temperature, read-out: In vitro inhibitory activity of USP1 IC50
How it was run: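 His6-USP1/His6-UAF1 complex was mixed with compound in 20 mM Tris-HCl pH 8.0, 2 mM CaCl2, 2 mM β-mercaptoethanol and 0.05% CHAPS. Ub-CHOP2 reporter system plus substrate was added, then incubated 0.5 h at room temperature. IC50 came from a four-parameter logistic fit.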

PXR = PXR (Homo sapiens (Human), UniProt O75469); assay: Potential for PXR activation in DPX2 cells; format: cell-based; details: 10 μM, versus 20 μM rifampicin
Protocol: DMSO solutions of the compounds to be tested and the control compound rifampicin solution were prepared, and diluted with Puracyp dosing medium (Puracyp, Cat. No: D-500-100) at 37° C. to respective test concentrations. The final concentrations of the compounds to be tested were 30 μM, 10 μM, and 1 μM, respectively, and the final concentration of rifampicin was 20 μM. The final concentration of DMSO in the test solution was 0.1%. In addition, 0.1% DMSO solution prepared with Puracyp dosing medium was used as a control.
DPX2 cells were suspended in Puracyp Culture medium (Puracyp, Cat No.: C-500-100) at a cell density of 4.5×10^5 cell/mL. Then, the suspension was placed on a 96-well culture plate at 100 μL/well for incubation at 37° C. for 24 h. The medium in appropriate wells of the 96-well culture plate was replaced (three times per well) by 100 μL of solution of the compounds to be tested and a control compound solution. After replacement, the plate was incubated at 37° C. for 24 h. The medium was then replaced (three times per well) by a newly prepared test solution of the compounds to be tested and a rifampicin test solution, and the plate was incubated at 37° C. for 24 h.
The medium in the 96-well culture plate was pipetted and washed twice with PBS. To each well, 50 μL of reagent diluted as required by CellTiter-Fluor™ Cell Viability Assay Kit (Promega, Cat. No.: G6082) was added, and incubated at 37° C. for 0.5 h. The 96-well plate was cooled to room temperature, and the fluorescence value of each well at 505 nm was measured in a fluorescence mode with a microplate reader at an excitation wavelength of 400 nm. Then, 50 μL of reagent prepared as required by One-Glo Luciferase Assay System (Promega, Cat. No.: E6120) was added to each well, and the mixture was incubated at room temperature for 5 min. The luminescence value of each well was read by using a lumen meter.
Normalized luciferase activity was determined by RLU/RFU, and the RLU and RFU of the samples were mean values of duplicate wells, respectively.
[formula] • Fold of activation: fold of activation of normalized luciferase; • RLUtest: measured luminescence value of test wells at each test dose of test compounds; • RLUvehicle: measured luminescence value of test wells when tested with the control DMSO solution; • RFUtest: measured fluorescence value of test wells at each test dose of test compounds; • RFUvehicle: measured fluorescence value of test wells when tested with the control DMSO solution.
The percentage of positive control was calculated as follows:
% Positive control=(fold activationtest compound−1)/(fold activationpositive control compound−1)×100% • % Positive control: percentage of PXR activation compared with 20 μM rifampicin activation at each test dose of test compounds; • Fold activationtest compound: fold of activation of normalized luciferase at each test dose of test compounds; • Fold activationpositive control compound: fold of activation of normalized luciferase of test compounds under 20 μM rifampicin.

[2] = Solubility (PBS pH 7.4) of compounds from DMSO solution; format: physicochemical; details: aqueous buffer, kinetic from dmso stock, 10 mM DMSO solution into PBS pH 7.4, 25° C., read-out: Calculated solubility
Protocol: The solubility (PBS pH 7.4) of a compound to be tested was determined by LC/MS/MS. 6 μL of 10 mM DMSO solution of the compound to be tested was mixed with 194 μL of DMSO to prepare 300 μM compound solution. In 490 μL of water and acetonitrile (1:1) containing an internal standard, 5 μL of the solution and 5 μL of PBS pH 7.4 solution were mixed to prepare 3 μM standard concentration solution of the sample to be tested. The dilution factor of the standard solution can be adjusted according to the strength of response signals in LC/MS.
To 485 μL of PBS pH 7.4 solution, 15 μL of 10 mM DMSO solution of the compound to be tested was added. […] After shaking, the stir bar was removed, and the sample was transferred to a filter plate and filtered using a vacuum manifold. In 490 μL of water and acetonitrile (1:1) containing an internal standard, 5 μL of filtrate and 5 μL of PBS pH 7.4 solution were mixed to prepare a solution to be tested. The dilution factor can be adjusted according to the solubility value and the strength of response signals in LC/MS.
The resulting samples were determined by LC/MS/MS. The sample solubility was calculated from peak areas of the solution of the compound to be tested and the standard concentration solution, according to the following equation:
[formula] • [Sample] is the solubility of the sample to be tested; • Area ratiosample is the ratio of the peak area of sample in the sample to be tested to the peak area of the internal standard; • INJ VOL STD is the injection volume of the standard concentration solution; • DFsample is the dilution factor of the solution of the sample to be tested; • [STD] is the concentration of the standard concentration solution; • INJ VOLsample is the injection volume of the solution of the sample to be tested; and • Area ratio STD is the ratio of the peak area of sample in the standard concentration solution to the peak area of the internal standard.

[3] = Metabolic stability in vitro in rat hepatocytes; format: in vitro ADME; details: read-out: Intrinsic clearance
Protocol: The concentration of each compound in the reaction system was measured by LC/MS/MS to calculate the intrinsic clearance of the compounds to be tested, and evaluate the metabolic stability in vitro in rat hepatocytes.
To the incubation plate, 198 μL of 0.5×10^6 cells/mL rat hepatocyte mixture and 2.0 μL of 100 μM compound to be tested or positive control were added to initiate reaction. Incubation was performed at 900 rpm at 37° C. […] Then the mixture was vortex-mixed for 5 min. […] Then 100 μL of supernatant of each compound was transferred to a 96-well sample plate, and 100 μL of purified water was added to dilute the sample. The resulting samples were quantified by ion chromatograms. The residual rate was calculated from peak areas of the compounds to be tested or the positive control. The slope k was determined using Microsoft Excel by linear regression of natural logarithm of the residual rate to the incubation time. The intrinsic clearance (in vitro CLint, μL/min/10^6 cells) was calculated from the slope value according to the following equation: […]
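For GI50 in this document: MDA-MB-436 proliferation over 7 days with compound, viability read as ATP luminescence (CellTiter-Glo), inhibition relative to DMSO-only wells, day 0 signal as background, GI50 from four-parameter fit.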

USP1 (Recombinant Human His6-USP1/His6-UAF1 Complex Protein), sequence (O94782 whole entry): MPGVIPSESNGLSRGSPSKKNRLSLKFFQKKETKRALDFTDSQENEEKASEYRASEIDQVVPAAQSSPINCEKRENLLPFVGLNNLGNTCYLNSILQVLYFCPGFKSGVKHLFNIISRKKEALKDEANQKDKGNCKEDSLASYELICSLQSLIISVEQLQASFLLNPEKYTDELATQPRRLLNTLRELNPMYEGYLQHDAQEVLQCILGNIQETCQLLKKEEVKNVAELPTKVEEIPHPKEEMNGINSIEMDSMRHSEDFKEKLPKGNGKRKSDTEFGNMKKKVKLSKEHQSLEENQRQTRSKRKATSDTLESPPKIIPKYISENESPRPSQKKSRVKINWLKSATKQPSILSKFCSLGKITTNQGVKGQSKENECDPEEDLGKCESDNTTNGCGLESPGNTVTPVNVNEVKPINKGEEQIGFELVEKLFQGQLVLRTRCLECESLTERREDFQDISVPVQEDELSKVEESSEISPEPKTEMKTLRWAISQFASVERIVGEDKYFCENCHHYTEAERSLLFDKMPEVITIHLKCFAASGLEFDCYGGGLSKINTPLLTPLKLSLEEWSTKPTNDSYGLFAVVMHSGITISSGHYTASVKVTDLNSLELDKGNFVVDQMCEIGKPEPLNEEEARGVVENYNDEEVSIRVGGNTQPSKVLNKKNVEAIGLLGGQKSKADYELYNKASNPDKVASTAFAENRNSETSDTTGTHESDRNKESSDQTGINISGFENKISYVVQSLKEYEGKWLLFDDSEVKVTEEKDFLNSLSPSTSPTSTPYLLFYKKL
USP1 (Recombinant Human His6-USP1/His6-UAF1 Complex Protein), sequence (Q8TAF3 whole entry partner): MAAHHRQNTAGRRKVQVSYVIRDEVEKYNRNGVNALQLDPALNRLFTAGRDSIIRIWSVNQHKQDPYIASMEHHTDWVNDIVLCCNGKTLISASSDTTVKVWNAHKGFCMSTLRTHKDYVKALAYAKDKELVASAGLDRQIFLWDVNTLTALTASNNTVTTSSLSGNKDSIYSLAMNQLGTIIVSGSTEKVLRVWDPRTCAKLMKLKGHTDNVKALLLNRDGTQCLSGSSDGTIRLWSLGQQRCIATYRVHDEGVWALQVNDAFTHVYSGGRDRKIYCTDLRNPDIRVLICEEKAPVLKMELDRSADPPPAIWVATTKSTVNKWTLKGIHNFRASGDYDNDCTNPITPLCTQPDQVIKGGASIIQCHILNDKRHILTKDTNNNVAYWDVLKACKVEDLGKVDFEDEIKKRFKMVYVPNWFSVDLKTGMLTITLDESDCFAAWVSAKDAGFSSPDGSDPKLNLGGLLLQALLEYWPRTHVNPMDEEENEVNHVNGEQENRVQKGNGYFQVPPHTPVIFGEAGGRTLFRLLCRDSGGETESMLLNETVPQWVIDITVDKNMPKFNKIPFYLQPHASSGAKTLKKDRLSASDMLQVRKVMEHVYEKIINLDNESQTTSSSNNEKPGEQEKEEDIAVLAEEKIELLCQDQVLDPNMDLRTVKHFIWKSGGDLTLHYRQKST
PXR, sequence (O75469 whole entry): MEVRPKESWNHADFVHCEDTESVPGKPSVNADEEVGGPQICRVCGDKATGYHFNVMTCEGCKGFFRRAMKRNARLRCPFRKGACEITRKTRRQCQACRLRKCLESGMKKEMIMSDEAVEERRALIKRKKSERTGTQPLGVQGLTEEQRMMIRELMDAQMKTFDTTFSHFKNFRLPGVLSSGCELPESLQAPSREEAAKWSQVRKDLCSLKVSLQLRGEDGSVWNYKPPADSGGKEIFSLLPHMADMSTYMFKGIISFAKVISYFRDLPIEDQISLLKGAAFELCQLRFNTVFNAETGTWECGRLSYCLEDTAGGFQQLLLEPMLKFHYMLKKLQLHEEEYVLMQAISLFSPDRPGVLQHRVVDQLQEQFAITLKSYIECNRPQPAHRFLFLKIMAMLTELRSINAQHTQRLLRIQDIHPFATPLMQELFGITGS

Compound	IC50 [1]	PXR activation (% Positive control) (PXR)	GI50 (MDA-MB-436 cells)	solubility at 2 h [2]	hepatocyte CLint at 1 μM [3]
COc1ncnc(C2CC2)c1-c1ncc2c(n1)N(CC1CCN(c3nc(C(F)(F)F)cn3C)CC1)CCO2 [Compound 30, 2-(4-cyclopropyl-6-methoxypyrimidin-5-yl)-8-((1-(1-methyl-4-(trifluoromethyl)-1H-imidazol-2-yl)piperidin-4-yl)methyl)-7,8-dihydro-6H-pyrimido[5,4-b][1,4]oxazine]	44.7 nM	–	161 nM	225 µM (≈ 119 µg/mL)	–
CCN1C(=O)CN(Cc2ccc(-c3nc(C(F)(F)F)cn3C)cc2)c2nc(-c3c(OC)ncnc3C3CC3)ncc21 [Compound 33, 2-(4-cyclopropyl-6-methoxypyrimidin-5-yl)-5-ethyl-8-(4-(1-methyl-4-(trifluoromethyl)-1H-imidazol-2-yl)benzyl)-7,8-dihydropteridin-6(5H)-one]	31.3 nM	–	53.8 nM	–	4.3 µL/min/1e6 cells
COc1ncnc(C2CC2)c1-c1ncc2c(n1)N(Cc1ccc(-c3nc(C(F)(F)F)cn3C(F)F)cc1)CC(=O)N2C [Compound 28, 2(4-cyclopropyl-6-methoxypyrimidin-5-yl)-8-((4-(1-(difluoromethyl)-4-(trifluoromethyl)-1H-imidazol-2-yl)phenyl)methyl)-5-methyl-7,8-dihydropteridin-6(5H)-one]	33.7 nM	–	51.1 nM	73 µM (≈ 42.8 µg/mL)	6.3 µL/min/1e6 cells
COc1ncnc(C2CC2)c1-c1ncc2c(n1)N(Cc1ccc(-c3nc(C(F)(F)F)cn3C)cc1)C(C)C(=O)N2C (stereo not shown) [Compound 26, 2-(4-cyclopropyl-6-methoxypyrimidin-5-yl)-5,7-dimethyl-8-(4-(1-methyl-4-(trifluoromethyl)-1H-imidazol-2-yl)benzyl)-7,8-dihydropteridin-6(5H)-one]	41.4 nM	–	41.1 nM	115 µM (≈ 64.9 µg/mL)	4.2 µL/min/1e6 cells
CCn1cc(C(F)(F)F)nc1-c1ccc(CN2CC(=O)N(C)c3cnc(-c4c(OC)ncnc4C4CC4)nc32)cc1 [Compound 40, 2-(4-cyclopropyl-6-methoxypyrimidin-5-yl)-5-methyl-8-(4-(1-ethyl-4-(trifluoromethyl)-1H-imidazol-2-yl)benzyl)-7,8-dihydropteridin-6(5H)-one]	26.9 nM	–	22.6 nM	122 µM (≈ 68.9 µg/mL)	–
COc1ncnc(C2CC2)c1-c1ncc2c(n1)N(Cc1ccc(-c3nc(C(F)(F)F)cn3C)cc1)CC(=O)N2C1CC1 [Compound 24, 2-(4-cyclopropyl-6-methoxypyrimidin-5-yl)-5-cyclopropyl-8-(4-(1-methyl-4-(trifluoromethyl)-1H-imidazol-2-yl)benzyl)-7,8-dihydropteridin-6(5H)-one]	23.6 nM	–	86.2 nM	228 µM (≈ 131 µg/mL)	–
COc1ncnc(C2CC2)c1-c1ncc2c(n1)N(Cc1ccc(-c3nc(C(F)(F)F)cn3C(C)C)cc1)CC(=O)N2C [Compound 41, 2-(4-cyclopropyl-6-methoxypyrimidin-5-yl)-5-methyl-8-(4-(1-isopropyl-4-(trifluoromethyl)-1H-imidazol-2-yl)benzyl)-7,8-dihydropteridin-6(5H)-one]	19 nM	–	28.4 nM	88 µM (≈ 50.9 µg/mL)	–
COc1ncnc(C2CC2)c1-c1ncc2c(n1)N(Cc1ccc(-c3nc(C(F)(F)F)cn3C)cn1)CCO2 [Compound 16]	–	–	1080 nM	284 µM (≈ 149 µg/mL)	–

Now from value to compound:

IC50 [1]	PXR activation (% Positive control) (PXR)	GI50 (MDA-MB-436 cells)	solubility at 2 h [2]	hepatocyte CLint at 1 μM [3]	Compound
22.6 nM	3.2 % Positive control	32.6 nM	–	–	COc1ncnc(C2CC2)c1-c1ncc2c(n1)N(Cc1ccc(-n3nc(C(F)(F)F)cc3C)cc1)CC(=O)N2C [Compound 43, 2-(4-cyclopropyl-6-methoxypyrimidin-5-yl)-5-methyl-8-(4-(5-methyl-3-(trifluoromethyl)-1H-pyrazol-1-yl)benzyl)-7,8-dihydropteridin-6(5H)-one]
–	–	–	50 µM (≈ 29.5 µg/mL)	–	CCN1C(=O)CN(Cc2ccc3c(c2)CCCn2cc(C(F)(F)F)nc2-3)c2nc(-c3c(OC)ncnc3C3CC3)ncc21 [Compound 46, 2-(4-cyclopropyl-6-methoxypyrimidin-5-yl)-5-ethyl-8-((2-(trifluoromethyl)-6,7-dihydro-5H-benzo[c]imidazo[1,2-a]azepin-9-yl)methyl)-7,8-dihydropteridin-6(5H)-one]
37.9 nM	–	93.1 nM	98 µM (≈ 57.1 µg/mL)	–	COc1ncnc(C2CC2)c1-c1ncc2c(n1)N(Cc1ccc(-c3nc(C(F)(F)F)cn3C)c(F)c1)C(C)C(=O)N2C (stereo not shown) [Compound 70, 2-(4-cyclopropyl-6-methoxypyrimidin-5-yl)-8-(3-fluoro-4-(1-methyl-4-(trifluoromethyl)-1H-imidazol-2-yl)benzyl)-5,7-dimethyl-7,8-dihydropteridin-6(5H)-one]
27.2 nM	–	29.6 nM	115 µM (≈ 67.5 µg/mL)	–	COc1ncnc(C2CC2)c1-c1ncc2c(n1)N(Cc1cc(F)c(-c3nc(C(F)(F)F)cn3C)c(F)c1)CC(=O)N2C [Compound 66, 2-(4-cyclopropyl-6-methoxypyrimidin-5-yl)-5-methyl-8-(3,5-difluoro-4-(1-methyl-4-(trifluoromethyl)-1H-imidazol-2-yl)benzyl)-7,8-dihydropteridin-6(5H)-one]
11.7 nM	–	–	72 µM (≈ 38.7 µg/mL)	–	COc1ncnc(C2CC2)c1-c1ncc2c(n1)N(Cc1ccc(-c3nc(C(F)(F)F)cn3C)cc1)C(=O)OC2 [Compound 80, 7-(4-cyclopropyl-6-methoxypyrimidin-5-yl)-1-(4-(1-methyl-4-(trifluoromethyl)-1H-imidazol-2-yl)benzyl)-1,4-dihydro-2H-pyrimido[4,5-d][1,3]oxazin-2-one]
